{"source": "paper PMC10350184", "about": "“Nullomer peptide increases immune cell infiltration and reduces tumor metabolism in triple negative breast cancer mouse model” (Research Square, 2023)", "tested_on": "4T1.2-Luc TNBC tumors", "experiment": "4T1.2-Luc orthotopic TNBC mouse model, unilateral tumor: tumor volume, tumor weight and body weight", "assay_type": "in vivo, female BALB/c mice", "settings": "trehalose IP", "excerpt": "The model was created by orthotopically injecting 4T1.2-Luc cells in the 4th mammary fat pad of Balb/c mice, with 1×10^5 cells per mouse. The cell line was developed by Dr. Cheryl Jorcyk and it expresses luciferase gene which serves as a luminescent indicator of gene expression or tumorigenesis, making the tumor cell traceable in vivo. Treatment started after the formation of palpable tumors and was detected by in vivo BLI (IVIS, Perkin Elmer) followed by randomization of the animals per group. For evaluating the effect of the peptides on this model, we carried out two separate studies. The first pilot study involved a set of 4 mice per group with bilateral mammary tumors, which received six IP administration of PBS, 9S1R-NulloPT drug at 50 mg/kg, 100 mg/Kg body weight or Trehalose, over a period of 2 weeks. The present study includes a set of 7–9 mice per group with unilateral tumors including the same groups as previous, but received a total of eight injections per mouse over a period of 2 weeks. […]\nMice were anesthetized by isoflurane followed by measurement of the tumor length and width using a manual Vernier caliper. This was performed before every drug administration and the tumor volume was calculated using the formula (length × width^2)/2. Body weights were also measured before every dose of the drug."}
{"compound": "OC[C@H]1O[C@H](O[C@H]2O[C@H](CO)[C@@H](O)[C@H](O)[C@H]2O)[C@H](O)[C@@H](O)[C@@H]1O", "note": "[Trehalose]", "values": [{"measurement": "post mortem tumor size, trehalose only group", "value": "no significant change"}]}
